# Test results as given in patent US20220395553A1, “CXCR4 ANTAGONIST PEPTIDES” (COHBAR, INC., priority 2019, published 2022).
# Square brackets hold non-standard residues; d marks the D form. Peptide text beside a SMILES is read from it.
# Columns and labels:
# [1] = biological target: T1, human CXCR4 (Homo sapiens, UniProt P61073); assay: IC50 for inhibition of β-Arrestin recruitment (Example 19); format: cell-based; design: host or cells: C2C12 (mouse myoblast) CXCR4 β-Arrestin PathHunter cell line
# Source text: C2C12 CXCR4 β-Arrestin cells were seed onto 384-well plates in standard medium.
# [2] = biological target: T1, human CXCR4; assay: Inhibition of β-Arrestin recruitment, single concentration (Example 18); format: cell-based; design: host or cells: C2C12 (mouse myoblast) CXCR4 β-Arrestin PathHunter cell line; details: peptide 1 μM, […] CXCL12 (EC80), C2C12 CXCR4 β-Arrestin cells
# Method: Peptides were initially prepared as 1 mM stock in DMSO and tested at a final concentration of 1 μM (0.1% DMSO). C2C12 CXCR4 β-Arrestin cells were seeded onto 384-well plates in standard medium. After overnight culture, the medium was replaced with buffer containing 1 μM peptide and pre-incubated for 30 min at 37° C. […] At the end of the 90 min incubation period, β-Arrestin recruitment in response to various treatments was quantified using a chemiluminescent complementation reporter assay to measure association of tagged human […] (ProLink tag) and tagged β-Arrestin (Enzyme Acceptor tag).
# [3] = biological target: T1, human CXCR4; assay: CXCR4/CXCL12 binding, HTRF format, single concentration (Example 23); design: host or cells: HEK293 (Tag-lite CXCR4 cells, frozen aliquots, transient expression); details: 15 nM CXCR4R fluorescent probe, 3 hours, HEK293 Tag-lite CXCR4 cells
# Outline: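 Tag-lite CXCR4 cells were exposed to peptide at 400 nM final with 15 nM (EC80) fluorescent CXCR4 probe for 3 h at room temperature. HTRF was read, and the 665/620 nm ratio ×10,000 measured probe bound to terbium-labelled receptor.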
# T1 sequence (P61073 whole entry): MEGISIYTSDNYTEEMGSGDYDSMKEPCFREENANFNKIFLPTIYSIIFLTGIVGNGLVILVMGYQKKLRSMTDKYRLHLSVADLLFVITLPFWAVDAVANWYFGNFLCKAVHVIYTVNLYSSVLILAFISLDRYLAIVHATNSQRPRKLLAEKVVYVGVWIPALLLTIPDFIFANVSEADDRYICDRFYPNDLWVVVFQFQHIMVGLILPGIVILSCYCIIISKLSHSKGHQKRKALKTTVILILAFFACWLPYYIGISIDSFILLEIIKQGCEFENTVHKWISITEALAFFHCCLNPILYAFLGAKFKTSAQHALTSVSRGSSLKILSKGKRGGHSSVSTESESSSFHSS
structure (smiles),measurement,setting,value
CC(C)C[C@H](NC(=O)[C@H](CO)NC(=O)[C@H](CO)NC(=O)[C@H](CCCNC(=N)N)NC(=O)[C@@H](C)NC(=O)[C@H](CO)NC(=O)[C@H](Cc1c[nH]cn1)NC(=O)[C@H](Cc1c[nH]cn1)NC(=O)[C@H](Cc1ccc(O)cc1)NC(=O)[C@H](CCCNC(=N)N)NC(=O)[C@H](CCC(=O)O)NC(=O)[C@@H](N)CC(C)C)C(=O)N[C@@H](CCCNC(=N)N)C(=O)N1CCC[C@H]1C(=O)N[C@@H](Cc1ccc(O)cc1)C(=O)N[C@H](C(=O)O)[C@@H](C)O [compound 5] (H-LERYHHS[dA]RSSLRPYT-OH; N-terminus and C-terminus assumed),IC50,[1],121 nM
CC(C)C[C@H](NC(=O)[C@H](CO)NC(=O)[C@H](CO)NC(=O)[C@H](CCCNC(=N)N)NC(=O)[C@@H](NC(=O)[C@H](CO)NC(=O)[C@H](Cc1c[nH]cn1)NC(=O)[C@H](Cc1c[nH]cn1)NC(=O)[C@H](Cc1ccc(O)cc1)NC(=O)[C@H](CCCNC(=N)N)NC(=O)[C@H](CCCNC(=N)N)NC(=O)[C@@H](N)CC(C)C)C(C)C)C(=O)N[C@@H](CCCNC(=N)N)C(=O)N1CCC[C@H]1C(=O)N[C@@H](Cc1ccc(O)cc1)C(=O)N[C@H](C(=O)N[C@@H](CCCCN)C(=O)O)[C@@H](C)O [compound 3] (H-LRRYHHSVRSSLRPYTK-OH; N-terminus and C-terminus assumed),Percent Inhibition of CXCL12 Mediated CXCR4 Activity,[2],113.8%
CC(C)C[C@H](NC(=O)[C@H](CO)NC(=O)[C@H](CO)NC(=O)[C@H](CCCNC(=N)N)NC(=O)[C@@H](NC(=O)[C@H](CO)NC(=O)[C@H](Cc1c[nH]cn1)NC(=O)[C@H](Cc1c[nH]cn1)NC(=O)[C@H](Cc1ccc(O)cc1)NC(=O)[C@H](CCCNC(=N)N)NC(=O)[C@H](CCC(=O)O)NC(=O)[C@@H](N)CC(C)C)C(C)C)C(=O)N[C@@H](CCCNC(=N)N)C(=O)N1CCC[C@H]1C(=O)N[C@@H](Cc1ccc(O)cc1)C(=O)N[C@H](C(=O)N[C@@H](CCCCN)C(=O)O)[C@@H](C)O [compound 4] (H-LERYHHSVRSSLRPYTK-OH; N-terminus and C-terminus assumed),Percent Inhibition of CXCR4/CXCL12 Binding (400 nM peptide),[3],88%
